Measured values reported in US9206200B2, “N-linked lactam M1 receptor positive allosteric mogulators” (Merck Sharp & Dohme Corp., priority 2011, dated 2015).

Biological target: T1, acetylcholine muscarinic M1 receptor (Homo sapiens, UniProt P11229)
T1 construct: expressed in transfected cells; host or cells: CHOnfat cells (CHO cells with an NFAT reporter) expressing hM1, kept under Geneticin selection
T1 sequence (P11229 1-460): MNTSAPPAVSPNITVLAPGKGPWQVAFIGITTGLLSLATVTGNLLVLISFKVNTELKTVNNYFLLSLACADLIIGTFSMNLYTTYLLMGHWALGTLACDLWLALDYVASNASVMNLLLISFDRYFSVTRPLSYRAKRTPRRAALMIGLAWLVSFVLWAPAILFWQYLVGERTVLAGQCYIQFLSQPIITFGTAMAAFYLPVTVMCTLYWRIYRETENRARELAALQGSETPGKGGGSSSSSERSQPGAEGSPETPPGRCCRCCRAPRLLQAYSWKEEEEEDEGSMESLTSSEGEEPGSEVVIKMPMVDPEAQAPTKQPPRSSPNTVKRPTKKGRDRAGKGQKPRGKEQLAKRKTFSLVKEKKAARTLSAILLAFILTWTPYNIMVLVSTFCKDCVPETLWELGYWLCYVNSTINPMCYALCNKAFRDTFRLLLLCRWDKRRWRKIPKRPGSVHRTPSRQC
Assay: muscarinic FLIPR assay: intracellular calcium in CHOnfat/hM1 cells, potentiation of EC20 acetylcholine
Format: cell-based
Details: Table 2; CHOnfat/hM1 cells, FLIPR, EC20 acetylcholine (3 nM final); read-out: M1 Pot.
Summary of the method: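 CHOnfat cells stably expressing human M1, Fluo-4AM-loaded, in HBSS with 20 mM HEPES, 2.5 mM probenecid, 1% BSA. Compounds preincubated 4 min (printed "4 mM") before an EC20 acetylcholine challenge (3 nM final). FLIPR intracellular Ca²⁺ signal compared with 3 nM acetylcholine alone to detect potentiation.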

| EC50 | SMILES |
| --- | --- |
| 42 nM | Cn1cc(N2CCN(Cc3cc4c(c5ncccc35)CN([C@H]3CCCC[C@@H]3O)C4=O)CC2)cn1 [Example 157, 8-[(1S,2S)-2-hydroxycyclohexyl]-5-{[4-(1-methyl-1H-pyrazol-4-yl)piperazin-1-yl]methyl}-8,9-dihydro-7H-pyrrolo[3,4-h]quinolin-7-one] |
| 70 nM | CC1c2c(cc(CN3CCN(c4cnn(C)c4)CC3)c3cccnc23)C(=O)N1C1CCCCC1O (stereo not drawn) [Example 158, 8-(2-hydroxycyclohexyl)-9-methyl-5-{[4-(1-methyl-1H-pyrazol-4-yl)piperazin-1-yl]methyl}-8,9-dihydro-7H-pyrrolo[3,4-h]quinolin-7-one] |
| 520 nM | CC1c2c(cc(CN3CCN(c4cccnc4)CC3)c3cccnc23)C(=O)N1C1CCCCC1O (stereo not drawn) [Example 163, 8-(2-hydroxycyclohexyl)-9-methyl-5-[(4-pyridin-3-ylpiperazin-1-yl)methyl]-8,9-dihydro-7H-pyrrolo[3,4-h]quinolin-7-one] |
| 36 nM | CC1c2c(cc(CN3CCN(c4cccnc4)CC3)c3cccnc23)C(=O)N1C1CCCCC1O (stereo not drawn) [Example 164, 8-(2-hydroxycyclohexyl)-9-methyl-5-[(4-pyridin-3-ylpiperazin-1-yl)methyl]-8,9-dihydro-7H-pyrrolo[3,4-h]quinolin-7-one] |
| 100 nM | CC1c2c(cc(CN3CCN(c4ccc(F)cc4)CC3)c3cccnc23)C(=O)N1C1CCCCC1O (stereo not drawn) [Example 173, 5-{[4-(4-fluorophenyl)piperazin-1-yl]methyl}-8-(2-hydroxycyclohexyl)-9-methyl-8,9-dihydro-7H-pyrrolo[3,4-h]quinolin-7-one] |
| 490 nM | CC1c2c(cc(CN3CCN(c4ccccc4)CC3)c3cccnc23)C(=O)N1C1CCCCC1O (stereo not drawn) [Example 175, 8-(2-hydroxycyclohexyl)-9-methyl-5-[(4-phenylpiperazin-1-yl)methyl]-8,9-dihydro-7H-pyrrolo[3,4-h]quinolin-7-one] |
| 93 nM | CC1c2c(cc(CN3CCN(c4ccccc4)CC3)c3cccnc23)C(=O)N1C1CCCCC1O (stereo not drawn) [Example 176, 8-(2-hydroxycyclohexyl)-9-methyl-5-[(4-phenylpiperazin-1-yl)methyl]-8,9-dihydro-7H-pyrrolo[3,4-h]quinolin-7-one] |

The next lines start with the compound.

| SMILES | EC50 |
| --- | --- |
| C[C@@H]1c2c(cc(CN3CCC(F)(c4ccccn4)CC3)c3cccnc23)C(=O)N1[C@H]1CCCC[C@@H]1O [Example 153, (9R)-5-[(4-fluoro-4-pyridin-2-ylpiperidin-1-yl)methyl]-8-[(1S,2S)-2-hydroxycyclohexyl]-9-methyl-8,9-dihydro-7H-pyrrolo[3,4-h]quinolin-7-one] | 8 nM |
| COc1cccc(C2(C#N)CCN(Cc3cc4c(c5ncccc35)CN([C@H]3CCCC[C@@H]3O)C4=O)CC2)n1 [Example 154, 1-({8-[(1S,2S)-2-hydroxycyclohexyl]-7-oxo-8,9-dihydro-7H-pyrrolo[3,4-h]quinolin-5-yl}methyl)-4-(6-methoxypyridin-2-yl)piperidine-4-carbonitrile] | 19 nM |
| O=C1c2cc(CN3CCN(c4ccncc4)CC3)c3cccnc3c2CN1C1CCCCC1O (stereo not drawn) [Example 160, 8-(2-hydroxycyclohexyl)-5-[(4-pyridin-4-ylpiperazin-1-yl)methyl]-8,9-dihydro-7H-pyrrolo[3,4-h]quinolin-7-one] | 110 nM |
| CC1c2c(cc(CN3CCC(c4ccncc4)CC3)c3cccnc23)C(=O)N1C1CCCCC1O (stereo not drawn) [Example 161, 8-(2-hydroxycyclohexyl)-9-methyl-5-[(4-pyridin-4-ylpiperidin-1-yl)methyl]-8,9-dihydro-7H-pyrrolo[3,4-h]quinolin-7-one] | 650 nM |
| O=C1c2cc(CN3CCN(c4cccnc4)CC3)c3cccnc3c2CN1C1CCCCC1O (stereo not drawn) [Example 162, 8-(2-hydroxycyclohexyl)-5-[(4-pyridin-3-ylpiperazin-1-yl)methyl]-8,9-dihydro-7H-pyrrolo[3,4-h]quinolin-7-one] | 28 nM |
| O=C1c2cc(CN3CCN(c4ccccn4)CC3)c3cccnc3c2CN1C1CCCCC1O (stereo not drawn) [Example 165, 8-(2-hydroxycyclohexyl)-5-[(4-pyridin-2-ylpiperazin-1-yl)methyl]-8,9-dihydro-7H-pyrrolo[3,4-h]quinolin-7-one] | 15 nM |
| CC1c2c(cc(CN3CCN(c4ccccn4)CC3)c3cccnc23)C(=O)N1C1CCCCC1O (stereo not drawn) [Example 166, 8-(2-hydroxycyclohexyl)-9-methyl-5-[(4-pyridin-2-ylpiperazin-1-yl)methyl]-8,9-dihydro-7H-pyrrolo[3,4-h]quinolin-7-one] | 580 nM |
| CC1c2c(cc(CN3CCN(c4ccccn4)CC3)c3cccnc23)C(=O)N1C1CCCCC1O (stereo not drawn) [Example 167, 8-(2-hydroxycyclohexyl)-9-methyl-5-[(4-pyridin-2-ylpiperazin-1-yl)methyl]-8,9-dihydro 7H-pyrrolo[3,4-h]quinolin-7-one] | 59 nM |
| COc1ccc(N2CCN(Cc3cc4c(c5ncccc35)CN(C3CCCCC3O)C4=O)CC2)cc1 (stereo not drawn) [Example 168, 8-(2-hydroxycyclohexyl)-5-{[4-(4-methoxyphenyl)piperazin-1-yl]methyl}-8,9-dihydro-7H-pyrrolo[3,4-h]quinolin-7-one] | 24 nM |
| COc1ccc(N2CCN(Cc3cc4c(c5ncccc35)C(C)N(C3CCCCC3O)C4=O)CC2)cc1 (stereo not drawn) [Example 169, 8-(2-hydroxycyclohexyl)-5-{[4-(4-methoxyphenyl)piperazin-1-yl]methyl}-9-methyl-8,9-dihydro-7H-pyrrolo[3,4-h]quinolin-7-one] | 590 nM |
| COc1ccc(N2CCN(Cc3cc4c(c5ncccc35)C(C)N(C3CCCCC3O)C4=O)CC2)cc1 (stereo not drawn) [Example 170, 8-(2-hydroxycyclohexyl)-5-{[4-(4-methoxyphenyl)piperazin-1-yl]methyl}-9-methyl-8,9-dihydro-7H-pyrrolo[3,4-h]quinolin-7-one] | 100 nM |
| O=C1c2cc(CN3CCN(c4ccc(F)cc4)CC3)c3cccnc3c2CN1C1CCCCC1O (stereo not drawn) [Example 171, 5-{[4-(4-fluorophenyl)piperazin-1-yl]methyl}-8-(2-hydroxycyclohexyl)-8,9-dihydro-7H-pyrrolo[3,4-h]quinolin-7-one] | 23 nM |
| CC1c2c(cc(CN3CCN(c4ccc(F)cc4)CC3)c3cccnc23)C(=O)N1C1CCCCC1O (stereo not drawn) [Example 172, 5-{[4-(4-fluorophenyl)piperazin-1-yl]methyl}-8-(2-hydroxycyclohexyl)-9-methyl-8,9-dihydro-7H-pyrrolo[3,4-h]quinolin-7-one] | 480 nM |
| O=C1c2cc(CN3CCN(c4ccccc4)CC3)c3cccnc3c2CN1C1CCCCC1O (stereo not drawn) [Example 174, 8-(2-hydroxycyclohexyl)-5-[(4-phenylpiperazin-1-yl)methyl]-8,9-dihydro-7H-pyrrolo[3,4-h]quinolin-7-one] | 18 nM |
